Earlier results on one molecule are cited in patent publication US20110092560A1, “TOPICAL COMPOSITION FOR CONTROLLING ECTOPARASITES IN DOGS AND CATS” (CEVA SANTE ANIMALE SA, priority 2008, published 2011).

For data set [1] the following is noted: mouse, in vivo, po.
The conditions of data set [2]: in vivo.

Consider `N#Cc1nn(-c2c(Cl)cc(C(F)(F)F)cc2Cl)c(N)c1[S+]([O-])C(F)(F)F` (centres unmarked) [fipronil, Fipronil], for which, in data set [1], the “metabolites eliminated in the faeces” value is 45-75%; the “metabolites eliminated in the urine” value was 5-25%; the plasma half-life was 149 to 200 h; the “tissues in which residues were found” value is “fat, the adrenal glands, pancreas, skin, liver, kidney, and muscle”. In addition, in data set [2], the “carcinogenic, teratogenic or mutagenic potential” value is listed as “not carcinogenic, teratogenic or mutagenic”.
